According to patent publication US20140099354A1, “BIOPASSIVATING MEMBRANE STABILIZATION BY MEANS OF NITROCARBOXYLIC ACID-CONTAINING PHOSPHOLIPIDS IN PREPARATIONS AND COATINGS” (priority 2011, published 2014):

Tests used:
[1] = test system: Cardiac muscle cells derived from neonatal rat heart; experiment: Hypoxia of cardiac muscle cells (viability, mitochondrial NAD+); assay type: cell-based; details: for mitochondrial NAD+ content: hypoxia, baseline 5
Experimental: Cardiac muscle cells derived from neonatal rat heart (Nitobe J, et al, Reactive oxygene species regulate FLICE inhibitory protein and susceptibility to FAS-mediated apoptosis in cardiac myocytes. Cardiovasc RES 2003, 119-28). The heart muscle cells were cultured in Dulbecco/Eagle medium (DMEM) with 10% FCS added under standard conditions for two days. Incubation with the natural and nitrated phospholipids, as well as the hypoxia experiments were carried out as described above. Incubated cells were grown in culture medium under standard conditions for 24 hours. This is followed by a vitality staining as described above. […] The frozen cells were thawed up to -4° C. and homogenized for subsequent NAD^+ analyses. By means of differential centrifuge, pellets containing mitochondria were separated (Di Lisa, et al, 1993; Am. J. Physiol. 264, […]-[…]). The NAD^+ content was determined by fluoroscopy, and normalized to the protein content (Veloso, D., and […]., 1974;) Anal. Biochem., 449-450).

cortical neurons = experiment: Hypoxia and reperfusion of cortical neurons (viability, LDH); details: for results of the hypoxia experiments compared with reference nitrated phospholipids: neurons and cardiac myocytes, 10 to 50 μmol/l
Experimental: To determine whether the membrane-stabilizing properties of nitrated phospholipids can lead to attenuation of effects due to an ischemic event or the re-perfusion damage, cortical neurons and cardiac myocytes were investigated.
Freshly prepared cortex tissue was separated with Papain and tissue suspensions were cultured in culture vessels (Prim ARA; BD Biosciences, USA) with Neurobasal A/B27 medium (Invitrogen) for 10-12 days. Cell suspensions were divided, and replenished with suspensions of the natural phospholipids SOPC and PLPC, as well as the analogue phospholipids with nitration of unsaturated fatty acids (1-stearoyl-2-(9-nitrooleoyl)-sn-PC and 1-palmitoyl-2-(9-nitrolinoleoyl)-sn-PC) at concentrations of 10 to 50 μmol/l in NaCl (0.9%) were added. […] After 4 hours, the cells were washed three times with buffered saline and buffered NaCl solution with the addition of MgCl2 and CaCl2 in an anaerobic atmosphere (85% N2, 5% O2, 10% CO2; at 35° C.) for 10 and 30 minutes. Then, the cells were washed once and grown in culture medium under aerobic conditions for 24 hours. […] Cells were stained with annexin V-FITC and propidium iodide (Molecular probes, USA). The vital and necrotic cells were measured by flow cytometry (FACSCalibur, Becton & Dickinson). The volume of culture medium was determined and an aliquot was taken for determination of the LDH (lactate dehydrogenase) concentration.

sciatic nerve = experiment: Viability of cryopreserved nerve grafts (Annexin-V staining, FACS); assay type: cell-based, rats; details: 100 mmolar solution 1 hour; −30° C. 72 hours
Experimental: The sciatic nerve was prepared and sectured in anesthetized rats. The nerve pieces were freed from connective tissue and divided into 3 parts. Specimens were placed in culture DMEM medium containing low a concentration of glucose (1 g/L) with L-glutamine (PAA, Pasching Austria) for 24 hours. […] Nerve specimens from the same animals that received no pretreatment served as controls. After incubation, the specimens were cultured for 24 hours. In a further control group, specimens were cryopreserved without any pretreatment. The specimens were covered with a sterile gauze pad moistened with culture medium. Thereafter the temperature was gradually cooled to −30° C. After 72 hours, the nerve pieces were gradually rewarmed to 37° C. After this, renewed culturing was done for 48 hours. The nerve pieces were dissected enzymatically then (collagenase A and D, Roche, Mannheim, Germany) followed by a mechanical separation through multiple uptake and release in a glass pipette. The isolated cells were washed and marked with a living/death staining (Annexin-V-Fluos staining Kit, Roche Diagnostics, Mannheim, Germany) and quantified using FACS analysis. The number of living cells identified was set in relation to the total cells count.

ovarian tissue strips = experiment: Cryopreservation of ovarian tissue strips: intact follicles; details: liquid nitrogen 14 days, cultured 14 days
[2] = Transisomerization of unsaturated fatty acids in coatings on balloon catheters (FTIR); assay type: physicochemical; details: for proportion of trans-fatty acids: after heat treatment (60° C., three hours)
Source text: The natural phospholipids POPC and SLPE, as well as the analogous nitrated phospholipids as shown in example C(PNOPC) and […]), as well as the phospholipids according to examples […], and S as a mono substance and as a combination of the native phospholipids and the corresponding nitro-carboxylic acid (s)-containing phospholipids mixed in a ratio of 1:1 were used for this investigation. Balloon catheters were coated by means of the Langmuir-Schaefer procedure where the balloon segment was aligned longitudinally and coaxial to the solution surface, dipping into the liquid for approx. 1 mm over the entire length. Then the catheter was slowly rotated around its axis 5 times. […] The solution was cooled and given to the coating solution then. In case of incomplete dissolution of the phospholipids or if they separated when cooled, DMSO was added at a concentration of up to 20 vol.-%, preferably up to 10 vol.-%. After coating, the catheters were vacuum dried for 8 hours in order to remove residual solvent. The abrasion or loss of coating layers was determined by weighing the catheter before and after coating as well as after the mechanical stability test in the tubing system as described above using a high precision balance. In order to examine the long-term stability of the coating, catheters coated with phospholipids were sealed with polyethylene glycol 1000 (Roth, Germany). For that purpose PEG 1000 was melted and mixed with a 10% ethanol solution at 50° C. A portion of the phospholipid-coated balloon catheter was coated by means of dip-coating in this PEG solution at 50° C., and dried thereafter for 8 hours. Stability of cis-conformity of unsaturated fatty acids of the phospholipids investigated was determined after heat treatment at 60° C. for three hours in a heating cabinet. After 24 hours and after 2 months the phospholipids coated on the balloon surface were detached and analyzed. Detachment was carried out in 50 ml of a chloroform:methanol mixture (3:1, v: v). A 10 μl aliquot was used for a FTIR spectroscopy. For this purpose the samples were dropped on a ZnSe ATR crystal and then the solvent was evaporated. Degree of transisomerization was determined using the integral of intensity of proton resonance in comparison to that measured from a cis configuration of the reference substances. Measurements were performed 24 hours after coating, heat treatment and after 2 months of storage at 25° C. under sterile room air conditions.

[3] = Abrasion stability and traction work load of coated balloon catheters; assay type: physicochemical
[4] = test system: HeLa, HUVEC and L929 fibroblast; experiment: cells; assay type: cell-based
Experimental: Physiologically occurring phospholipids can be taken up by virtually all cell lines in large quantities. It is known that phospholipids that contain non-physiologically occurring fatty acid residues can cause cell lyses or death. Three cell lines (HeLa, HUVEC and L929 fibroblast) were cultured in a suitable culture medium of 5% FCS at 37° C. and 5% CO2 concentrations to a subconfluent concentration of 1.5×10^5 cells.
SOPC, DOPC, POPC, ONOPC, PNLPC, and the free fatty acids of OA, LA, NOOA, and NOLA were dissolved in 0.5% DMSO. […] Cell cultures were incubated for 24 h and 48 h. Thereafter, the culture medium was removed and the cells washed twice. Following this, cells suspensions were given in four vials to perform the following analysis:
For the determination of viability, phenol red was added to the suspended cells. After 4 h, the medium was renewed and 10 μl of the MTT solution was added. The cells were cultured for 4 hours, and then a 10% SDS solution was pipetted. After 24 h, absorption of formazan crystals was measured at 500 nm using a power wave X (bio-tek instruments, Inc., USA). For the quantitative comparison of toxicity, the EC50 was determined.

[5] = top coating with PEG, after 2 month

Molecule: CCCCC/C=C\C/C=C\CCCCCCCC(=O)O[C@H](COC(=O)CCCCCCCCCCCCCCC)COP(=O)([O-])OCC[N+](C)(C)C [PLPC, 1-Palmitoyl-2-linoleoyl-sn-glycero-3-PC, reference compound]
- loss of viability of heart muscle cells after hypoxia ([1]; (10 minutes)): 16%
- loss of viability of heart muscle cells after hypoxia ([1]; (30 minutes)): 42%
- mitochondrial NAD+ content ([1]; first printed value): 2.4 nmol/mg protein
- mitochondrial NAD+ content ([1]; second printed value): 0.7 nmol/mg protein
- increase in LDH versus normoxemia culture (cortical neurons; 10-minutes ischemia): 380 fold
- viability of cortical cells measured after 24 hours (cortical neurons; 10-minutes ischemia): 30%
- increase in LDH versus normoxemia culture (cortical neurons; 30-minutes ischemia): 630 fold
- viability of cortical cells measured after 24 hours (cortical neurons; 30-minutes ischemia): 0%

Molecule: CC/C=C(\C/C=C\C/C=C\CCCCCCCC(=O)OC[C@H](COP(=O)([O-])OCC[N+](C)(C)C)OC(=O)CCCCCCC/C=C\C/C=C\C/C(=C\CC)[N+](=O)[O-])[N+](=O)[O-] [Example N20, 1,2-di-(E-15-nitro-α-linolenoyl)-sn-3-glycerophosphocholine]
- proportion of living cells relative to non-frozen control (sciatic nerve): 82%

Molecule: 1,2-di-(9-nitrogadleoyl)-sn-3-glycerophosphocholine, 1,2-di-(10-nitrolinoleoyl)-sn-3-glycerophosphocholine, 1-(9-nitrolinoleoyl)-2-(10-nitrogadoleoyl)-sn-3-glycerophosphocholine and 1-(10-nitrogadoleoyl)-2-(9-nitrogadoleoyl)-sn-3-glycerophosphocholine [Example N9]
- proportion of living cells relative to non-frozen control (sciatic nerve): 79%
- rate of intact follicles relative to the control group (ovarian tissue strips): 90%

Molecule: 1-Palmitoyl-2-(10-hydroxy-9-nitro-α-linolenoyl)-sn-3-glycerophosphocholine and 1-palmitoyl-2-(9-hydroxy-10-nitro-α-linolenoyl)-sn-3-glycerophosphocholine [Example O6]
- proportion of living cells relative to non-frozen control (sciatic nerve): 78%
- results of the hypoxia experiments compared with reference nitrated phospholipids (cortical neurons): slightly worse results

Molecule: CCCCCCCC/C=C(\CCCCCCCC(=O)O[C@H](COC(=O)CCCCCCCCCCCCCCC)COP(=O)([O-])OCC[N+](C)(C)C)[N+](=O)[O-] [Example C, (E)-1-Palmitoyl-2-(9-nitrooleoyl)-sn-3-glycerophosphocholine]
- proportion of trans-fatty acids [2]: 25%
- degree of transisomerization ([2]; coatings after 2 months): 30%
- degree of transisomerization [2, 5]: 32%
- results of the hypoxia experiments compared with reference nitrated phospholipids (cortical neurons): did not show relevant differences

Molecule: CCCCCCCCC(O)C(CCCCCCCC(=O)OC[C@H](COP(=O)([O-])OCC[N+](C)(C)C)OC(=O)CCCCCCCC(C(O)CCCCCCCC)[N+](=O)[O-])[N+](=O)[O-] (some centres unmarked) [Example O1, 1,2-di-(9-nitro-10-hydroxy-stearoyl)-sn-3-glycerophosphocholine]
- mechanical removal of coating substance and workload to pull the catheter through PTFE tubing [3]: Very similar results
- results of the hypoxia experiments compared with reference nitrated phospholipids (cortical neurons): slightly worse results

Molecule: 1-eicosapentaenoyl-2-(5-nitro-EPA)-sn-3-glycerophosphocholine and 1-eicosapentaenoyl-2-(6-nitro-EPA)-sn-3-glycerophosphocholine [Example P4]
- proportion of living cells relative to non-frozen control (sciatic nerve): 74%
- rate of intact follicles relative to the control group (ovarian tissue strips): 93%

Molecule: 1,2-di-(9-nitrolinoleoyl)-sn-3-glycerophosphocholine, 1,2-di-(10-nitrolinoleoyl)-sn-3-glycerophosphocholine, 1-(9-nitrolinoleoyl)-2-(10-nitrolinoleoyl)-sn-3-glycerophosphocholine and 1-(10-nitrolinoleoyl)-2-(9-nitrolinoleoyl)-sn-3-glycerophosphocholine [Example N1]
- mechanical removal of coating substance and workload to pull the catheter through PTFE tubing [3]: Very similar results
- rate of intact follicles relative to the control group (ovarian tissue strips): 93%

Molecule: 1,2-di-(hydroxyl, nitro-8,11,14,17-eicosatetraenoyl)-sn-3-glycerophosphocholine [Example O5]
- results of the hypoxia experiments compared with reference nitrated phospholipids (cortical neurons): slightly worse results

Molecule: 1-oleoyl-2-(9-nitropalmitoleoyl)-sn-3-glycerophosphocholine and 1-oleoyl-2-(10-nitropalmitoleoyl)-sn-3-glycerophosphocholine [Example P1]
- proportion of living cells relative to non-frozen control (sciatic nerve): 90%

Molecule: CCCCC/C=C\C/C=C\CCCCCCCC(=O)O[C@H](COC(=O)CCCCCCCCCCCCCCCCC)COP(=O)(O)OCCN [SLPE, 1-Stearoyl-2-linoleoyl-sn-3-glycero-phosphatidylethanolamine, reference compound]
- proportion of trans-fatty acids [2]: 86%
- degree of transisomerization ([2]; coatings after 2 months): 98%
- degree of transisomerization [2, 5]: 92%
- proportion of living cells relative to non-frozen control (sciatic nerve): 15%

Molecule: 1-erucinyl-2-(9-nitrogadoleoyl)-sn-3-glycerophosphocholine and 1-erucinyl-2-(10-nitrogadoleoyl)-sn-3-glycerophosphocholine [Example P3]
- proportion of living cells relative to non-frozen control (sciatic nerve): 90%
- rate of intact follicles relative to the control group (ovarian tissue strips): 97%

Molecule: CCCCCCCC/C=C\CCCCCCCC(=O)OC[C@H](COP(=O)([O-])OCC[N+](C)(C)C)OC(=O)CCCCCCC/C(=C\CCCCCCCC)[N+](=O)[O-] [Example P15, 1-oleoyl-2-(E-9-nitrooleoyl)-sn-3-glycerophosphocholine]
- total viability (MTT assay) [4]: 83%
- EC50 ([4]; after 48 hours, range over cell lines, read-out: EC50 (MTT assay)): 800 to 5000 µM

Molecule: 1,2-di-(5-nitroeicosapentaenoyl)-sn-3-glycerophosphocholine, 1,2-di-(6-nitroeicosapentaenoyl)-sn-3-glycerophosphocholine, 1-(5-nitroeicosapentaenoyl)-2-(6-nitroeicosapentaenoyl)-sn-3-glycerophosphocholine and 1-(6-nitroeicosapentaenoyl)-2-(5-nitroeicosapentaenoyl)-sn-3-glycerophosPhocholine [Example N10]
- proportion of living cells relative to non-frozen control (sciatic nerve): 82%
- rate of intact follicles relative to the control group (ovarian tissue strips): 98%

Molecule: 1,2-di-(dinitro-α-linolenoyl)-sn-glycero-3-phosphatidylcholines [Example N14]
- proportion of living cells relative to non-frozen control (sciatic nerve): 81%

Molecule: 1-(5,8,11-eicosatrienoyl)-2-(9-nitro-α-linolenoyl)-sn-3-glycerophosphocholine and 1-(5,8,11-eicosatrienoyl)-2-(10-nitro-α-linolenoyl)-sn-3-glycerophosphocholine [Example P5]
- mechanical removal of coating substance and workload to pull the catheter through PTFE tubing [3]: Very similar results
- rate of intact follicles relative to the control group (ovarian tissue strips): 90%
